One data set addresses human BACE1 (Homo sapiens, UniProt P56817). Kind of data set: Fluorescent kinetic assay, inhibition of BACE1 (WABC-6 peptide substrate). Format: biochemical. Conditions: 10 nM enzyme, 25 μM substrate, pH 4.5, room temperature; read-out: IC50 (μM) BACE1. The procedure: Evaluation of the Enzyme Activity of Test Compounds and the Inhibition of hBACE1, MuBACE1 and hBACE2 by Test Compounds
The concentration is determined by absorbance at 354 nm using an extinction coefficient ε of 18172 M^−1cm^−1, The substrate stock is stored in small aliquots at −80° C. [Substrate Stock]=ABS^354 nm*10^6/18172 ([…])
Dilution and mixing steps: total reaction volume: 100 μL • 1. 2× inhibitor dilutions in buffer A (66.7 mM Na-Acetate, pH 4.5, 0.0667% CHAPS) are prepared, • 2. 4× enzyme dilution in buffer A (66.7 mM Na-Acetate, pH 4.5, 0.0667% CHAPS) are prepared, • 3. 100 μM substrate dilution in 1× PBS is prepared, • 4. 50 μL 2× Inhibitor and 25 μL 100 μM substrate are added to each well of 96-well plate (from DYNEX Technologies, VWR #: 11311-046), the immediately 25 μL 4× enzyme are added to the inhibitor and substrate mixer, the fluorescence readings are initiated.
Readings at λex 320 nm and λem 420 nm are taken every 40-sec for 30 min at room temperature to determine the linear slope for substrate cleavage rate (vi).

The target in a further data set is T1, human BACE2 (Homo sapiens, UniProt Q9Y5Z0).
T1 sequence (Q9Y5Z0 63-518): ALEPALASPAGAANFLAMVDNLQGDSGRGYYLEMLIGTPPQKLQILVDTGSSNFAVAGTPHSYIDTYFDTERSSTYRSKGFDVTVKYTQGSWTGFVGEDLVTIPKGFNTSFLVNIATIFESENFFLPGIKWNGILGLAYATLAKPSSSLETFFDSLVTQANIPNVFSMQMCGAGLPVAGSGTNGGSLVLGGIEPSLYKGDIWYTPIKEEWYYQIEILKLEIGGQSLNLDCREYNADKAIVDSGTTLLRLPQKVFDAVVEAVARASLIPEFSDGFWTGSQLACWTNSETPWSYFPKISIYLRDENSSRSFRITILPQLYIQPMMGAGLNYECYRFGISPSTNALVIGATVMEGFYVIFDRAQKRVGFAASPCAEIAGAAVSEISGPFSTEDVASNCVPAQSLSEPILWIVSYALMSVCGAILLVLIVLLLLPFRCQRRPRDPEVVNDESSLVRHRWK
Nature of the data set: Fluorescent kinetic assay for human recombinant BACE 2 (WABC-6 peptide substrate). The following applies: for IC50: 1.5 nM enzyme, 25 μM substrate, pH 4.5, room temperature; for inhibition at 25 µM: read-out: BACE2. % inhibition. In kind it is biochemical. The method, then: Fluorescent Kinetic Assay for Human Recombinant BACE 2
This assay is used to provide kinetic and selectivity parameters for the analyses of the tested compounds.
Temperature: room temperature.
Dilution and Mixing Steps: Total Reaction Volume.: 100 μL • 1.
Readings at λex 320 nm, λem 420 nm are taken every 40-sec for 30 min at room temperature and to determine the linear slope for substrate cleavage rate (vi).

Read-outs that look alike come from different tables or passages of the source.

As usually defined, the melting point is the temperature of the solid-liquid transition. Usually IC50 stands for the concentration that gives 50% inhibition. A word on the inhibition: it is the share of the control response that was lost under treatment.

human BACE1, sequence (P56817 46-501): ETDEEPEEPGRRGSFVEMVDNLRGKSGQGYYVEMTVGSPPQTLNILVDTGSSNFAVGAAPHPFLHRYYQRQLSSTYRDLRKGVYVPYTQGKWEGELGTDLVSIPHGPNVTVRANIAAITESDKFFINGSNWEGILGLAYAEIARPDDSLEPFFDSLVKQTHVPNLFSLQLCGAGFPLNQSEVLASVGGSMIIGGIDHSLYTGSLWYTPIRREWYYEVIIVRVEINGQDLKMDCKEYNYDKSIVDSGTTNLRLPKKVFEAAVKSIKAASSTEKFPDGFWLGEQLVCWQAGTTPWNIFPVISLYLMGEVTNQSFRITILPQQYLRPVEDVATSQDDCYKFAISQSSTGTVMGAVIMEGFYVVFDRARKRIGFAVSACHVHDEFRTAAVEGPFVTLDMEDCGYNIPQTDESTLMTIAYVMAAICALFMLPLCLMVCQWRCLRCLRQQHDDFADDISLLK

Molecule `NC1=NC(c2ccc(OC(F)(F)F)cc2)(c2cccc(-c3cncc(Cl)c3)c2)C2=NCCCN12` (stereo not drawn) [Example 20, 8-[3-(5-chloropyridin-3-yl)phenyl]-8-[4-(trifluoromethoxy)phenyl]-2,3,4,8-tetrahydroimidazo[1,5-a]pyrimidin-6-amine] yielded a melting point of 112 to 116 °C. Besides, on human BACE1, the IC50 was 0.04 µM. Besides, at human BACE2, the IC50 is 0.54 µM.

As for `NC1=NC(c2ccc(OC(F)(F)F)cc2)(c2cccc(-c3cc(F)cnc3F)c2)C2=NCCCN12` (stereo not drawn) [Example 28], the melting point lay within 94 to 102 °C. Moreover, the IC50 at human BACE1 was 0.06 µM. Besides, the IC50 at human BACE2 turned out to be 4.68 µM.

Turning to `NC1=NC(c2ccc(OC(F)F)cc2)(c2cccc(-c3cccnc3F)c2)C2=NCC3(COC3)CN12` (stereo not drawn) [Example 46, 8-[4-(Difluoromethoxy)phenyl]-8-[3-(2-fluoropyridin-3-yl)phenyl]-2,8-dihydrospiro[imidazo[1,5-a]pyrimidine-3,3′-oxetan]-6-amine], the melting point lay in the range of 96 to 107 °C. Also, the IC50 on human BACE1 worked out at 0.01 µM. The IC50 on human BACE2 was found to be 0.55 µM.

In turn, `NC1=NC(c2ccc(OC(F)(F)F)cc2)(c2ccc(F)c(-c3cncnc3)c2)C2=NCCCN12` (stereo not drawn) [Example 13, 8-{[(4-Fluoro-3-pyrimidin-5-yl)phenyl]-8-[4-(trifluoromethoxy)phenyl]-2,3,4,8-tetrahydroimidazo[1,5-a]pyrimidin-6-yl}amine] had a melting point of 105 to 115 °C. In addition, the IC50 on human BACE1 stood at 0.15 µM. In addition, the inhibition at 25 µM on human BACE2 (at 25 μM) was determined as 25%.

The molecule `COc1ccc(C2(c3ccc(F)c(-c4cncnc4)c3)N=C(N)N3CCCN=C32)cc1` (stereo not drawn) [Example 23, 8-(4-fluoro-3-pyrimidin-5-ylphenyl)-8-(4-methoxyphenyl)-2,3,4,8-tetrahydroimidazo[1,5-a]pyrimidin-6-amine] showed a melting point of 122 °C. The IC50 on human BACE1 is 0.12 µM. Moreover, the inhibition at 25 µM at human BACE2 (at 25 μM) was 42%.

As for `CCOc1ccc(C2(c3cccc(-c4cccnc4F)c3)N=C(N)N3CCCN=C32)cc1OCC` (stereo not drawn) [Example 25], the melting point lay within 202 to 208 °C. Moreover, the IC50 at human BACE1 is 0.083 µM. The IC50 at human BACE2 was 9.87 µM.

In turn, `NC1=NC(c2ccc(OC(F)(F)F)cc2)(c2ccc(F)c(-c3cncc(F)c3)c2)C2=NCCCN12` (stereo not drawn) [Example 14, {8-[4-Fluoro-3-(5-fluoropyrimidin-3-yl)phenyl]-8-[4-(trifluoromethoxy)phenyl]-2,3,4,8-tetrahydroimidazo[1,5-a]pyrimidin-6-yl}amine] showed a melting point of 94 to 105 °C. Also, the IC50 on human BACE1 was 0.14 µM. Further, at human BACE2, the inhibition at 25 µM worked out at 65%.

The molecule `NC1=NC(c2ccc(OC(F)F)cc2)(c2cccc(-c3cccnc3F)c2)C2=NCCCN12` (stereo not drawn) [Example 41, 8-(4-Difluoromethoxyphenyl)-8-[3-(2-fluoropyridin-3-yl)phenyl]-2,3,4,8-tetrahydroimidazo[1,5-a]pyrimidin-6-ylamine] had a melting point of 104 to 114 °C. Besides, at human BACE1, the IC50 stood at 0.018 µM. In addition, on human BACE2, the IC50 was 1.23 µM.

On to `NC1=NC(c2cccc(-c3cccnc3F)c2)(c2ccc3c(c2)OC(F)(F)O3)C2=NCCCN12` (stereo not drawn) [Example 43, 8-(2,2-Difluoro-benzo[1,3]dioxol-5-yl)-8-[3-(2-fluoro-pyridin-3-yl)-phenyl]-2,3,4,8-tetrahydro-imidazo[1,5-a]pyrimidin-6-ylamine], for which the melting point lay within 95 to 99 °C. Besides, the half-maximal inhibitory concentration (IC50) at human BACE1 was 0.74 µM. Further, the inhibition at 25 µM at human BACE2 (at 25 μM) was 53%.

Consider `NC1=NC(c2ccc(OC(F)(F)F)cc2)(c2ccc(F)c(-c3cccnc3F)c2)C2=NCCCN12` (stereo not drawn) [Example 15, 8-[4-fluoro-3-(2-fluoropyridin-3-yl)phenyl]-8-[4-(trifluoromethoxy)phenyl]-2,3,4,8-tetrahydroimidazo[1,5-a]pyrimidin-6-amine], for which the melting point was in the range of 99 to 122 °C. For the same molecule, the half-inhibitory concentration (IC50) on human BACE1 turned out to be 0.1 µM. For the same molecule, the inhibition at 25 µM on human BACE2 (at 25 μM) turned out to be 44%.

`NC1=NC(c2ccc(OC(F)F)cc2)(c2cccc(-c3cccnc3F)c2)C2=NCC3(CC3)CN12` (stereo not drawn) [Example 44, 8′-[4-(Difluoromethoxy)phenyl]-8′-[3-(2-fluoropyridin-3-yl)phenyl]-2′,8′-dihydrospiro[cyclopropane-1,3′-imidazo[1,5-a]pyrimidin]-6′-amine]: the melting point lay within 98 to 108 °C. Further, the IC50 on human BACE1 was 0.02 µM. For the same molecule, on human BACE2, the IC50 worked out at 2.26 µM.

The molecule `COc1ccc(C2(c3ccc(F)c(-c4cccnc4F)c3)N=C(N)N3CCCN=C32)cc1` (stereo not drawn) [Example 24, 8-[4-fluoro-3-(2-fluoropyridin-3-yl)phenyl]-8-(4-methoxyphenyl)-2,3,4,8-tetrahydroimidazo[1,5-a]pyrimidin-6-amine] registered a melting point of 115 °C. In addition, on human BACE1, the IC50 worked out at 0.06 µM. Also, the IC50 on human BACE2 turned out to be 8.18 µM.

With `COCOc1ccc(C2(c3cccc(-c4cccnc4F)c3)N=C(N)N3CCCN=C32)cc1` (stereo not drawn) [Example 38, 8-[3-(2-Fluoro-pyridin-3-yl)-phenyl]-8-(4-methoxymethoxy-phenyl)-2,3,4,8-tetrahydro-imidazo[1,5-a]pyrimidin-6-ylamine], the melting point was 95 to 105 °C. For the same molecule, on human BACE1, the IC50 came out at 0.093 µM. Besides, the inhibition at 15.5 µM on human BACE2 (at 15.5 μM) was 47%.

`COc1ccc(C2(c3cccc(-c4cccnc4F)c3)N=C(N)N3CCCN=C32)cc1` (stereo not drawn) [Example 21, 8-[3-(2-fluoropyridin-3-yl)phenyl]-8-(4-methoxyphenyl]-2,3,4,8-tetrahydroimidazo[1,5-a]pyrimidin-6-amine] registered a melting point of 117 to 121 °C. For the same molecule, at human BACE1, the IC50 turned out to be 0.09 µM. Also, at human BACE2, the IC50 is 6.57 µM.

`NC1=NC(c2ccc(OC(F)(F)F)cc2)(c2cccc(-c3cncc(F)c3)c2)C2=NCCCN12` (stereo not drawn) [Example 19, 8-[3-(5-fluoropyridin-3-yl)phenyl]-8-[4-(trifluoromethoxy)phenyl]-2,3,4,8-tetrahydroimidazo[1,5-a]pyrimidin-6-amine] returned a melting point of 112 to 118 °C. Moreover, at human BACE1, the IC50 worked out at 0.08 µM. Further, the IC50 at human BACE2 was found to be 3.22 µM.

For the origin of these results see US20090042912A1, “DIPHENYLIMIDAZOLYL COMPOUNDS AS INHIBITORS OF beta-SECRETASE” (Wyeth, priority 2004, published 2009).
